Source: patent publication US20100119599A1 (ARCHER PHARMACEUTICALS, INC., priority 2006, published 2010)

What was measured:
Aβ1-42 = assay: Measurement of Aβ1-42 in culture medium of 7W WT APP751 CHO cells by ELISA; format: cell-based, Chinese hamster; settings: for activity at 5 µM: Cricetulus griseus, Table 1, 5 μM test compound, CHO cells stably transfected with human APP751, culture medium, ELISA, control DMSO, 0 = no detectable amount, read-out: Aβ1-42 (% of control); for Aβ1-42 (% of control): CHO cells that overexpress APP751, zero = below the detection limit of the assay
Aβ1-40 = assay: Measurement of Aβ1-40 in culture medium of 7W WT APP751 CHO cells by ELISA; format: cell-based, Chinese hamster; settings: for activity at 5 µM: Cricetulus griseus, Table 1, 5 μM test compound, CHO cells stably transfected with human APP751, culture medium, ELISA, control DMSO, 0 = no detectable amount; for Aβ1-40 (% of control): CHO cells that overexpress APP751, zero = below the detection limit of the assay
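Note: 5 µM test compound but RI-coded compounds at 10 µM for 24 hours.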

COC(=O)C1=C(C)NC2=C(C(=O)CC(c3cccs3)C2)C1c1cc(OC)ccc1OC (centres unmarked) [ST052389, methyl 4-(2,5-dimethoxyphenyl)-2-methyl-5-oxo-7-(2-thienyl)-1,4,6,7,8-pentahydroquinoline-3-carboxylate]
activity at 5 µM (Aβ1-42): 44.9% | activity at 5 µM (Aβ1-40): 78.3%

CC1=C(C(=O)OCCOc2ccccc2)C(c2coc3ccc(C)cc3c2=O)C2=C(CC(C)(C)CC2=O)N1 (centres unmarked) [ST052392, 2-phenoxyethyl 2,7,7-trimethyl-4-(6-methyl-4-oxochromen-3-yl)-5-oxo-1,4,6,7,8-pentahydroquinoline-3-carboxylate]
activity at 5 µM (Aβ1-42): 11.9% | activity at 5 µM (Aβ1-40): 28.1%

COC(=O)C1=C(C)NC2=C(C(=O)CC(c3cccs3)C2)C1c1cccc(C(F)(F)F)c1 (centres unmarked) [ST052393, methyl 2-methyl-5-oxo-7-(2-thienyl)-4-[3-(trifluoromethyl)phenyl]-1,4,6,7,8-pentahydroquinoline-3-carboxylate]
activity at 5 µM (Aβ1-42): 48.2% | activity at 5 µM (Aβ1-40): 34.2%

CC1=C(C(=O)OCCc2ccccc2)C(c2ccc(C)o2)C2=C(CC(C)(C)CC2=O)N1 (centres unmarked) [ST052398, 2-phenylethyl 2,7,7-trimethyl-4-(5-methyl(2-furyl))-5-oxo-1,4,6,7,8-pentahydroquinoline-3-carboxylate]
activity at 5 µM (Aβ1-42): 55.6% | activity at 5 µM (Aβ1-40): 44.3%

CC1=C(C(=O)OCc2ccccc2)C(c2ccccc2Br)C2=C(CCCC2=O)N1 (centres unmarked) [ST052408, phenylmethyl 4-(2-bromophenyl)-2-methyl-5-oxo-1,4,6,7,8-pentahydroquinoline-3-carboxylate]
activity at 5 µM (Aβ1-42): 63.4% | activity at 5 µM (Aβ1-40): 63%

COC(=O)C1=C(C)NC2=C(C(=O)CC(c3cccs3)C2)C1c1ccc(Cl)c(Cl)c1 (centres unmarked) [ST052414, methyl 4-(3,4-dichlorophenyl)-2-methyl-5-oxo-7-(2-thienyl)-1,4,6,7,8-pentahydroquinoline-3-carboxylate]
activity at 5 µM (Aβ1-42): 66.9% | activity at 5 µM (Aβ1-40): 70.2%

CCOc1cccc(C2C(C(=O)OC)=CNC=C2C(=O)OC)c1 [ST052415, methyl 4-(3-ethoxyphenyl)-5-(methoxycarbonyl)-1,4-dihydropyridine-3-carboxylate]
Aβ1-42 (% of control) (Aβ1-42): 72.15 % of control | Aβ1-40 (% of control) (Aβ1-40): 70.57 % of control

COc1ccc(C2C(C(=O)OCCOc3ccccc3)=C(C)NC3=C2C(=O)CC(C)(C)C3)cc1O (centres unmarked) [ST052422, 2-phenoxyethyl 4-(3-hydroxy-4-methoxyphenyl)-2,7,7-trimethyl-5-oxo-1,4,6,7,8-pentahydroquinoline-3-carboxylate]
activity at 5 µM (Aβ1-42): 44.8% | activity at 5 µM (Aβ1-40): 38.3%

CCCOCCOC(=O)C1=C(C)NC2=C(C(=O)CC(C)(C)C2)C1c1ccc(Br)cc1 (centres unmarked) [ST052437, 2-propoxyethyl 4-(4-bromophenyl)-2,7,7-trimethyl-5-oxo-1,4,6,7,8-pentahydroquinoline-3-carboxylate]
activity at 5 µM (Aβ1-42): 16.5% | activity at 5 µM (Aβ1-40): 5.31%

CCCOCCOC(=O)C1=C(C)NC2=C(C(=O)CC(C)(C)C2)C1c1ccc(Cl)c(Cl)c1 (centres unmarked) [ST052446, 2-propoxyethyl 4-(3,4-dichlorophenyl)-2,7,7-trimethyl-5-oxo-1,4,6,7,8-pentahydroquinoline-3-carboxylate]
activity at 5 µM (Aβ1-42): 45.2% | activity at 5 µM (Aβ1-40): 58.1%

CCOC(=O)C1=CN(c2cc(C)ccc2C)C=C(C(=O)OCC)C1c1cccc(OC)c1OC [ST052450, ethyl 4-(2,3-dimethoxyphenyl)-1-(2,5-dimethylphenyl)-5-(ethoxycarbonyl)-1,4-dihydropyridine-3-carboxylate]
Aβ1-42 (% of control) (Aβ1-42): 12.04 % of control | Aβ1-40 (% of control) (Aβ1-40): 5.249 % of control

CCCOCCOC(=O)C1=C(C)NC2=C(C(=O)CC(C)(C)C2)C1c1ccccc1Cl (centres unmarked) [ST052454, 2-propoxyethyl 4-(2-chlorophenyl)-2,7,7-trimethyl-5-oxo-1,4,6,7,8-pentahydroquinoline-3-carboxylate]
activity at 5 µM (Aβ1-42): 33.2% | activity at 5 µM (Aβ1-40): 25.6%

CCSCCOC(=O)C1=C(C)NC2=C(C(=O)CC(C)(C)C2)C1c1cccc(C)c1 (centres unmarked) [ST052457, 2-ethylthioethyl 2,7,7-trimethyl-4-(3-methylphenyl)-5-oxo-1,4,6,7,8-pentahydroquinoline-3-carboxylate]
activity at 5 µM (Aβ1-42): 63.9% | activity at 5 µM (Aβ1-40): 38.1%

COCCOC(=O)C1=C(C)NC2=C(C(=O)CCC2)C1c1cc(OC)c(OC)cc1Br (centres unmarked) [ST052462, 2-methoxyethyl 4-(2-bromo-4,5-dimethoxyphenyl)-2-methyl-5-oxo-1,4,6,7,8-pentahydroquinoline-3-carboxylate]
activity at 5 µM (Aβ1-42): 94.3% | activity at 5 µM (Aβ1-40): 61.8%

CC1=C(C(=O)OCc2ccccc2)C(c2coc3ccc(Cl)cc3c2=O)C2=C(CCCC2=O)N1 (centres unmarked) [ST052468, phenylmethyl 4-(6-chloro-4-oxochromen-3-yl)-2-methyl-5-oxo-1,4,6,7,8-pentahydroquinoline-3-carboxylate]
activity at 5 µM (Aβ1-42): 31.9% | activity at 5 µM (Aβ1-40): 43.9%

CCOC(=O)C1=CN(c2cc(C)ccc2C)C=C(C(=O)OCC)C1c1ccc(OCC)c(OC)c1 [ST052471, ethyl 1-(2,5-dimethylphenyl)-5-(ethoxycarbonyl)-4-(4-ethoxy-3-methoxyphenyl)-1,4-dihydropyridine-3-carboxylate]
Aβ1-42 (% of control) (Aβ1-42): 57.75 % of control | Aβ1-40 (% of control) (Aβ1-40): 34.26 % of control

CCOC(=O)C1=CN(c2cc(C)ccc2C)C=C(C(=O)OCC)C1c1cc(OC)c(OC)cc1OC [ST052474, ethyl 1-(2,5-dimethylphenyl)-5-(ethoxycarbonyl)-4-(2,4,5-trimethoxyphenyl)-1,4-dihydropyridine-3-carboxylate]
Aβ1-42 (% of control) (Aβ1-42): 3.498 % of control | Aβ1-40 (% of control) (Aβ1-40): 5.404 % of control

CCOC(=O)C1=CN(c2cc(C)ccc2C)C=C(C(=O)OCC)C1c1ccc(OC)c(OC)c1OC [ST052487, ethyl 1-(2,5-dimethylphenyl)-5-(ethoxycarbonyl)-4-(2,3,4-trimethoxyphenyl)-1,4-dihydropyridine-3-carboxylate]
Aβ1-42 (% of control) (Aβ1-42): 15.1 % of control | Aβ1-40 (% of control) (Aβ1-40): 11.56 % of control

CCOC(=O)C1=CN(c2cc(C)ccc2C)C=C(C(=O)OCC)C1c1ccccc1OCC [ST052488, ethyl 1-(2,5-dimethylphenyl)-5-(ethoxycarbonyl)-4-(2-ethoxyphenyl)-1,4-dihydropyridine-3-carboxylate]
Aβ1-42 (% of control) (Aβ1-42): 57.75 % of control | Aβ1-40 (% of control) (Aβ1-40): 60.3 % of control

CCOC(=O)C1=CN(c2cc(C)ccc2C)C=C(C(=O)OCC)C1c1cc(OC)c(OC)c(OC)c1 [ST052491, ethyl 1-(2,5-dimethylphenyl)-5-(ethoxycarbonyl)-4-(3,4,5-trimethoxyphenyl)-1,4-dihydropyridine-3-carboxylate]
Aβ1-42 (% of control) (Aβ1-42): 28.35 % of control | Aβ1-40 (% of control) (Aβ1-40): 70.29 % of control

COC(=O)C1=C(C)NC2=C(C(=O)CC(c3cccs3)C2)C1c1ccc(C(F)(F)F)cc1 (centres unmarked) [ST052493, methyl 2-methyl-5-oxo-7-(2-thienyl)-4-[4-(trifluoromethyl)phenyl]-1,4,6,7,8-pentahydroquinoline-3-carboxylate]
activity at 5 µM (Aβ1-42): 57.1% | activity at 5 µM (Aβ1-40): 39.9%

CCCCOC(=O)C1=C(C)NC2=C(C(=O)CC(C)(C)C2)C1c1cccc(I)c1 (centres unmarked) [ST056056, butyl 4-(3-iodophenyl)-2,7,7-trimethyl-5-oxo-1,4,6,7,8-pentahydroquinoline-3-carboxylate]
activity at 5 µM (Aβ1-42): 12.3% | activity at 5 µM (Aβ1-40): 6.56%
